pIC50: −log10 of the molar value. ≈ marks a conversion by molar mass, not a printed value. Structures can show the parent of a compound that is named as a salt.
Experiments:
c-Met [1] = target: T1, c-Met (Homo sapiens, UniProt P08581); assay: Delfia autophosphorylation kinase assay on the c-Met; format: biochemical; set-up: The purified His6 tagged cytoplasmic domain of c-Met was diluted to a concentration of 500 ng/ml; made in house; host or cells: Sf9 insect cells with recombinant baculovirus; Large-scale expression and purification were done by the contract lab Pan Vera; details: His6 tagged cytoplasmic domain of c-Met, 1 μM ATP; read-out: c-Met Delfia Autophos IC50
Protocol: This example describes the cloning, expression, and purification of the cytoplasmic domain of c-Met which has the c-Met receptor tyrosine kinase activity.
A DELFIA time resolved fluorescence assay was developed for screening of compounds that decreases the autophosphorylation thus the kinase activity of c-Met.
The DELFIA assay is non-radioactive. The autophophorylation of the c-Met is measured by an anti-phosphotyrosine antibody coupled to an Europium tag.
A major advantage of this format is that it allowed for the development of an autophosphorylation assay using Ni-chelate plates which bind the hexa-his tag on the recombinant Met kinase. Autophosphorylation assay allows to use a known substrate, Met kinase itself, for the phosphorylation. The DELFIA Met autophosphorylation assay is very sensitive with a signal to noise ratio in excess of 50:1.
The assay procedure for screening is as follows. The purified His6 tagged cytoplasmic domain of c-Met was diluted to a concentration of 500 ng/ml in enzyme dilution buffer (50 mM Tris-HCl, pH8.0, 0.1% BSA) and dispensed to assay plates at a volume of 50 μl per well. Black opaque HisGrab Nickel coated 96 well plates (Pierce, Rockford, Ill.) were selected to run the assay. Next, 2.5 μl of compound in 40% DMSO was added to test wells, 2.5 μl of 40% DMSO only was added to the negative control wells. The autophosphorylation reaction was initiated upon the addition of 50 μl of reaction buffer, 50 mM Tris-HCl, pH 8.0, 10 mM MgCl2, 0.1 mM Na3VO4, 1 mM DTT, 1 μM ATP. Plates were incubated at room temperature for 1 hour followed by 2 washes with 200 μl/well of PBS. Europium conjugated anti-phosphotyrosine antibody, Eu-PY20 from Perkin Elmer was diluted to 50 ng/ml in Delfia AB buffer (Perkin Elmer, Boston, Mass.), added to the 96 well assay plates at a volume of […], and incubated at room temperature for 2 hours. Assay plates were then washed 4 times each with 200 μl/well of Delfia wash buffer (Perkin Elmer). After the final wash 150 μl of Delfia Enhancement solution (Perkin Elmer) was added to each well of the assay plate and incubated at room temperature for 1 hour. Plates were read on an LJL Analyst instrument (Molecular Devices; Sunnyvale, Calif.) with filter settings of 360 excitation, 620 emission, and 410 dichroic. IC50 values were calculated using Graphpad Prism software (Graphpad Software; San Diego, Calif.).
Target sequence in this assay (P08581 956-1390 limits assumed): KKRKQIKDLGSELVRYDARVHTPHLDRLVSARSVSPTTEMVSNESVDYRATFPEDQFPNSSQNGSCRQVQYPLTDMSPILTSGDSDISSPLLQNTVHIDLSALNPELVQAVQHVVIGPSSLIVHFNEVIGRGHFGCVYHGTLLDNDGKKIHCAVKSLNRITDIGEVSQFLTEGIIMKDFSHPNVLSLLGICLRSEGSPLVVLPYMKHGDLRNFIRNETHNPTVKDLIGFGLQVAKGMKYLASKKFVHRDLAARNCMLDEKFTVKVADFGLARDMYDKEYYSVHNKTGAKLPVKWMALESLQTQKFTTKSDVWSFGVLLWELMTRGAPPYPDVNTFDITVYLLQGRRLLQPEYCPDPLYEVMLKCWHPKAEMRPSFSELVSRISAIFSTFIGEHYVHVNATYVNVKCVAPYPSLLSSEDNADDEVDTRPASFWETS

Aqueous solubility assay = details: water with 0.4% DMSO, kinetic from dmso stock
Protocol: Water, PBS and aqueous HCl at pH2 having a final DMSO content of 0.4%, with the final DMSO concentration reaching 40 μM. Samples were placed in the incubator and shaken for 15 minutes.

c-Met [2] = target: T1, c-Met; assay: Fluorescence polarization assay on the kinase activity of c-Met; format: biochemical; set-up: The c-Met kinase domain consists amino acid 1046-1390 of the c-Met protein; made in house; host or cells: Sf9 insect cells with baculovirus; details: 6H-TEV-cMet, poly Gly4Tyr substrate, 10 μM ATP; read-out: c-Met FP Enz IC50
Text: A fluorescence polarization assay (FP) was developed for screening of compounds that decreases the kinase activity of c-Met.
A protein (6H-TEV-cMet) comprising c-Met kinase domain was cloned, recombinantly expressed and purified following a procedure similar to that as described in Example A. The protein comprises a His tag consisting of six histidines at its N-terminal, a TEV protease cleavage site, and the c-Met kinase domain. The c-Met kinase domain consists amino acid 1046-1390 of the c-Met protein as listed in GenBank protein accession number P08581.
For the c-Met kinase assay, the 6H-TEV-cMet was used as the enzyme, and a poly Gly4Tyr peptide (Sigma, P-0275) was used as the substrate. The kinase reaction was performed in a volume of 10 μl in HE microplates (LJL Biosystems). Assay conditions were as follows: 100 mM HEPES pH 7.5, 0.01% Tween-20, 1 mM DTT, 5 mM MgCl2, 10 μM ATP, 10 μg/ml poly Gly4Tyr. The kinase reaction was initiated upon addition of 10 nM 6H-TEV-cMet. After a 12 minute incubation at room temperature the reaction was terminated with […] 50 mM EDTA.
Phosphorylation of the peptide substrate was detected with PanVera Tyrosine Kinase Assay Kit, Green reagents (P2837). Five minutes after the addition of EDTA, 10 μl of antibody/tracer mix (Pan Vera reagents, 1:1:3 dilution of antibody: Tracer: FP dilution buffer, Cat. # P2837) was added to each well. Plates were allowed to incubate for 30 minutes at room temperature and fluorescence polarization was measured with an LJL Analyst instrument (Molecular Devices; Sunnyvale, Calif.) with excitation=485 nm filter and emission=530 nm filter. IC50 values were calculated from triplicate sets of data using Graphpad Prism software (Graphpad Software; San Diego, Calif.).
Target sequence in this assay (P08581 1046-1390): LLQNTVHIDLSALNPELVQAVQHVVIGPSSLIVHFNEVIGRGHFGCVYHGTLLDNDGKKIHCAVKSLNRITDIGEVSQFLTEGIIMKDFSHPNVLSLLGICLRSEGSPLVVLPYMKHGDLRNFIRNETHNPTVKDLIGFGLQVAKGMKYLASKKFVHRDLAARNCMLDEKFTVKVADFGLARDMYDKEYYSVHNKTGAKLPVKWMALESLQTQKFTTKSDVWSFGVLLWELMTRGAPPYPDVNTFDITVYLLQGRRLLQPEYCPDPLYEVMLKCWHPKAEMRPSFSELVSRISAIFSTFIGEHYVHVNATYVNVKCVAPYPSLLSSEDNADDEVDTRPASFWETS

| Compound | pIC50 (c-Met [1]) | solubility at 15 min (Aqueous solubility assay) [µM] | pIC50 (c-Met [2]) |
| --- | --- | --- | --- |
| O=C(Cc1ccc2c(c1)CCO2)N/N=C1\C(=O)Nc2cc(C(=O)NCCCN3CC[C@H](O)C3)cc(Br)c21 [Example 13, (S)-4-Bromo-3-[(2-2,3-dihydro-benzofuran-5-yl-acetyl)-hydrazono]-2-oxo-2,3-dihydro-1H-indole-6-carboxylic acid [3-(3-hydroxy-pyrrolidin-1-yl)-propyl]-amide] | 9.00 |  |  |
| O=C(Cc1ccc2c(c1)CCO2)N/N=C1\C(=O)Nc2cc(C(=O)NCCN3CCOCC3)cc(Br)c21 [Example 6, 4-Bromo-3-[(2-2,3-dihydro-benzofuran-5-yl-acetyl)-hydrazono]-2-oxo-2,3-dihydro-1H-indole-6-carboxylic acid (2-morpholin-4-yl-ethyl)-amide] | 8.30 | 44 (≈ 24.5 µg/mL) | 8.30 |
| 4-Bromo-3-[(2-2,3-dihydro-benzofuran-5-yl-acetyl)-hydrazono]-2-oxo-2,3-dihydro-1H-indole-6-carboxylic acid (3-morpholin-4-yl-propyl)-amide [Example 7] | 9.15 |  | 9.00 |
| O=C(Cc1ccc2c(c1)CCO2)N/N=C1\C(=O)Nc2cc(C(=O)NCCCN3CCC[C@@H]3CO)cc(Br)c21 [Example 11, (R)-4-Bromo-3-[(2-2,3-dihydro-benzofuran-5-yl-acetyl)-hydrazono]-2-oxo-2,3-dihydro-1H-indole-6-carboxylic acid [3-(2-hydroxymethyl-pyrrolidin-1-yl)-propyl]-amide] | 9.30 |  |  |
| O=C(Cc1ccc2c(c1)CCO2)N/N=C1\C(=O)Nc2cc(C(=O)NCCCN3CC[C@@H](O)C3)cc(Br)c21 [Example 10, (R)-4-Bromo-3-[(2-2,3-dihydro-benzofuran-5-yl-acetyl)-hydrazono]-2-oxo-2,3-dihydro-1H-indole-6-carboxylic acid [3-(3-hydroxy-pyrrolidin-1-yl)-propyl]-amide] | 9.15 |  |  |
| CN(C)CCNC(=O)c1cc(Br)c2c(c1)NC(=O)/C2=N\NC(=O)Cc1ccc2c(c1)CCO2 [Example 8, 4-Bromo-3-[(2-2,3-dihydro-benzofuran-5-yl-acetyl)-hydrazono]-2-oxo-2,3-dihydro-1H-indole-6-carboxylic acid (2-dimethylamino-ethyl)-amide] | 9.00 | 41.1 (≈ 21.1 µg/mL) | 8.00 |
| CN1CCN(CCCNC(=O)c2ccc3c(c2)NC(=O)/C3=N\NC(=O)Cc2ccc3c(c2)CCO3)CC1 [Example 4, 3-[(2-2,3-Dihydro-benzofuran-5-yl-acetyl)-hydrazono]-2-oxo-2,3-dihydro-1H-indole-6-carboxylic acid [3-(4-methyl-piperazin-1-yl)-propyl]-amide] | 7.55 | 37.9 (≈ 19.1 µg/mL) |  |
| O=C(Cc1ccc2c(c1)CCO2)N/N=C1/C(=O)Nc2cc(C(=O)NCCCN3CCC[C@H]3CO)cc(Br)c21 [Example 1, (S)-4-Bromo-3-[(2-2,3-dihydro-benzofuran-5-yl-acetyl)-hydrazono]-2-oxo-2,3-dihydro-1H-indole-6-carboxylic acid [3-(2-hydroxymethyl-pyrrolidin-1-yl)-propyl]-amide] | 8.22 |  |  |
| O=C(Cc1ccc2c(c1)CCO2)N/N=C1\C(=O)Nc2cc(C(=O)NCCCN3CCC(O)CC3)cc(Br)c21 [Example 12, 4-Bromo-3-[(2-2,3-dihydro-benzofuran-5-yl-acetyl)-hydrazono]-2-oxo-2,3-dihydro-1H-indole-6-carboxylic acid [3-(4-hydroxy-piperidin-1-yl)-propyl]-amide] | 8.70 |  |  |
| O=C(Cc1ccc2c(c1)CCO2)N/N=C1\C(=O)Nc2cc(C(=O)NCCCO)cc(Br)c21 [Example 15, 4-Bromo-3-[(2-2,3-dihydro-benzofuran-5-yl-acetyl)-hydrazono]-2-oxo-2,3-dihydro-1H-indole-6-carboxylic acid (3-hydroxy-propyl)-amide] | 9.00 |  |  |
| CN(C)CCCNC(=O)c1cc(Br)c2c(c1)NC(=O)/C2=N\NC(=O)Cc1ccc2occc2c1 [Example 14, 3-[(2-Benzofuran-5-yl-acetyl)-hydrazono]-4-bromo-2-oxo-2,3-dihydro-1H-indole-6-carboxylic acid (3-dimethylamino-propyl)-amide] | 8.80 |  |  |
| CN(C)CCCNC(=O)c1cc(Br)c2c(c1)NC(=O)/C2=N\NC(=O)Cc1ccc2c(c1)CCO2 [Example 9, 4-Bromo-3-[(2-2,3-dihydro-benzofuran-5-yl-acetyl)-hydrazono]-2-oxo-2,3-dihydro-1H-indole-6-carboxylic acid (3-dimethylamino-propyl)-amide] | 8.30 |  |  |

Second part, the compound after the results:

| pIC50 (c-Met [1]) | solubility at 15 min (Aqueous solubility assay) [µM] | pIC50 (c-Met [2]) | Compound |
| --- | --- | --- | --- |
| 6.18 |  |  | CN1CCN(C(=O)c2cc(Br)c3c(c2)NC(=O)/C3=N\NC(=O)Cc2ccc3ocnc3c2)CC1 [Example 17, Benzooxazol-5-yl-acetic acid [4-bromo-6-(4-methyl-piperazine-1-carbonyl)-2-oxo-1,2-dihydro-indol-3-ylidene]-hydrazide] |
| 9.00 | 38.8 (≈ 22.6 µg/mL) | 7.89 | CN1CCN(CCCNC(=O)c2cc(Br)c3c(c2)NC(=O)/C3=N\NC(=O)Cc2ccc3c(c2)CCO3)CC1 [Example 5, 4-Bromo-3-[(2-2,3-dihydro-benzofuran-5-yl-acetyl)-hydrazono]-2-oxo-2,3-dihydro-1H-indole-6-carboxylic acid [3-(4-methyl-piperazin-1-yl)-propyl]-amide] |
| 8.00 | 43.9 (≈ 23.1 µg/mL) |  | CN1CCN(C(=O)c2cc(Br)c3c(c2)NC(=O)/C3=N\NC(=O)Cc2ccc3c(c2)CCO3)CC1 [Example 2, (2,3-Dihydro-benzofuran-5-yl)-aceticacid[4-bromo-6-(4-methyl-piperazine-1-carbonyl)-2-oxo-1,2-dihydro-indol-3-ylidene]-hydrazide] |
| 7.19 |  |  | CN1CCN(C(=O)c2cc(Br)c3c(c2)NC(=O)/C3=N\NC(=O)Cc2ccc3occc3c2)CC1 [Example 16, Benzofuran-5-yl-acetic acid [4-bromo-6-(4-methyl-piperazine-1-carbonyl)-2-oxo-1,2-dihydro-indol-3-ylidene]-hydrazide hydrochloride] |
| 6.80 |  |  | CN1CCN(C(=O)c2cc(Br)c3c(c2)NC(=O)/C3=N\NC(=O)Cc2ccc3onc(N)c3c2)CC1 [Example 19, (3-Amino-benzo[d]isoxazol-5-yl)-acetic acid [4-bromo-6-(4-methyl-piperazine-1-carbonyl)-2-oxo-1,2-dihydro-indol-3-ylidene]-hydrazide] |
| 5.33 |  |  | CN1CCN(C(=O)c2cc(Br)c3c(c2)NC(=O)/C3=N\NC(=O)Cc2ccc3sccc3c2)CC1 [Example 18, Benzothiophen-5-yl-acetic acid [4-bromo-6-(4-methyl-piperazine-1-carbonyl)-2-oxo-1,2-dihydro-indol-3-ylidene]-hydrazide hydrochloride] |

From patent publication US7662824B2, “Acylhydrazones as kinase modulators” (Janssen Pharmaceutica NV, priority 2005, dated 2010)
